This is an account of results in ChEMBL document CHEMBL3045794, “Antimicrobial activity of thiazolyl benzenesulfonamide-condensed 2,4-thiazolidinediones derivatives” (2013).

Values after ≈ are worked out from the molar mass of the structure shown.

The first experiment has as its system Pseudomonas aeruginosa. The experiment can be described thus: Antibacterial activity against Pseudomonas aeruginosa MTCC 741 assessed as diameter of growth inhibition zone after 24 hr by Kirby-Bauer disk diffusion method. Format: functional.
Conditions: not given
Turning to `Cc1cccc(C(=O)N2C(=O)S/C(=C\c3ccc(S(=O)(=O)Nc4nc(-c5ccccc5)cs4)cc3)C2=O)c1`, the “diameter of the inhibition zone (DIZ)” value is recorded as 19 mm.
In the case of `O=C1S/C(=C\c2ccc(S(=O)(=O)Nc3nc(-c4ccccc4)cs3)cc2)C(=O)N1C(=O)c1ccc(Cl)cc1`, the “diameter of the inhibition zone (DIZ)” value is 22 mm.
Still for that read-out and setting: the result for `O=C1S/C(=C\c2ccc(S(=O)(=O)Nc3nc(-c4ccccc4)cs3)cc2)C(=O)N1C(=O)c1ccccc1Cl` reads 24 mm; that for `Cc1ccc(C(=O)N2C(=O)S/C(=C\c3ccc(S(=O)(=O)Nc4nc(-c5ccccc5)cs4)cc3)C2=O)cc1`, 22 mm.
The same measure, in the same setting: the result for `O=C1S/C(=C\c2ccc(S(=O)(=O)Nc3nc(-c4ccccc4)cs3)cc2)C(=O)N1C(=O)c1cccc(Cl)c1` reads 24 mm.

For a further experiment, the system named is Escherichia coli. Nature of the experiment: Antibacterial activity against Escherichia coli MTCC 739 assessed as diameter of growth inhibition zone after 24 hr by Kirby-Bauer disk diffusion method. Format: functional.
Conditions: not given
(In general: In agar diffusion tests the substance spreads into inoculated agar from a disc or well.)
For `Cc1cccc(C(=O)N2C(=O)S/C(=C\c3ccc(S(=O)(=O)Nc4nc(-c5ccccc5)cs4)cc3)C2=O)c1`, the “diameter of the inhibition zone (DIZ)” value was 18 mm.
`O=C1S/C(=C\c2ccc(S(=O)(=O)Nc3nc(-c4ccccc4)cs3)cc2)C(=O)N1C(=O)c1ccc(Cl)cc1`: the “diameter of the inhibition zone (DIZ)” value worked out at 23 mm.
For the molecule `O=C1S/C(=C\c2ccc(S(=O)(=O)Nc3nc(-c4ccccc4)cs3)cc2)C(=O)N1C(=O)c1ccccc1Cl`, the “diameter of the inhibition zone (DIZ)” value was 25 mm.
As to `Cc1ccc(C(=O)N2C(=O)S/C(=C\c3ccc(S(=O)(=O)Nc4nc(-c5ccccc5)cs4)cc3)C2=O)cc1`, the “diameter of the inhibition zone (DIZ)” value is 22 mm.
Turning to `O=C1S/C(=C\c2ccc(S(=O)(=O)Nc3nc(-c4ccccc4)cs3)cc2)C(=O)N1C(=O)c1cccc(Cl)c1`, the “diameter of the inhibition zone (DIZ)” value is listed as 24 mm.

The subject of a further experiment is Mycobacterium tuberculosis. Nature of the experiment: Antitubercular activity against Mycobacterium tuberculosis H37Rv MTCC 200 assessed as growth inhibition measured within 10 days by BACTEC MGIT method. Format: functional. To be noted: H37Rv MTCC 200, 240 h.
Take `Cc1cccc(C(=O)N2C(=O)S/C(=C\c3ccc(S(=O)(=O)Nc4nc(-c5ccccc5)cs4)cc3)C2=O)c1`: the MIC99 (commonly an inhibitory concentration at the 99% level, which refers to growth in some studies and to a panel of isolates in others) worked out at 125 µg/mL (≈ 223 µM).
Consider `O=C1S/C(=C\c2ccc(S(=O)(=O)Nc3nc(-c4ccccc4)cs3)cc2)C(=O)N1C(=O)c1ccc(Cl)cc1`, for which the MIC99 stood at 62.5 µg/mL (≈ 107 µM).
With `O=C1S/C(=C\c2ccc(S(=O)(=O)Nc3nc(-c4ccccc4)cs3)cc2)C(=O)N1C(=O)c1ccccc1Cl`, the MIC99 is 62.5 µg/mL (≈ 107 µM).
Consider `Cc1ccc(C(=O)N2C(=O)S/C(=C\c3ccc(S(=O)(=O)Nc4nc(-c5ccccc5)cs4)cc3)C2=O)cc1`, for which the MIC99 stood at 250 µg/mL (≈ 445 µM).
The same measure, in the same setting: the result for `NNC(=O)c1ccncc1` [ISONIAZID] reads 0.2 µg/mL (≈ 1.46 µM).
Turning to `O=C1S/C(=C\c2ccc(S(=O)(=O)Nc3nc(-c4ccccc4)cs3)cc2)C(=O)N1C(=O)c1cccc(Cl)c1`, the MIC99 turned out to be 62.5 µg/mL (≈ 107 µM).

A further experiment relates to Staphylococcus aureus. Nature of the experiment: Antibacterial activity against Staphylococcus aureus MTCC 96 assessed as diameter of growth inhibition zone after 24 hr by Kirby-Bauer disk diffusion method. The format is functional.
Conditions: not given
As to `Cc1cccc(C(=O)N2C(=O)S/C(=C\c3ccc(S(=O)(=O)Nc4nc(-c5ccccc5)cs4)cc3)C2=O)c1`, the “diameter of the inhibition zone (DIZ)” value is recorded as 18 mm.
`O=C1S/C(=C\c2ccc(S(=O)(=O)Nc3nc(-c4ccccc4)cs3)cc2)C(=O)N1C(=O)c1ccc(Cl)cc1`: the “diameter of the inhibition zone (DIZ)” value is recorded as 24 mm.
Regarding `O=C1S/C(=C\c2ccc(S(=O)(=O)Nc3nc(-c4ccccc4)cs3)cc2)C(=O)N1C(=O)c1ccccc1Cl`, the “diameter of the inhibition zone (DIZ)” value amounted to 24 mm.
On to `Cc1ccc(C(=O)N2C(=O)S/C(=C\c3ccc(S(=O)(=O)Nc4nc(-c5ccccc5)cs4)cc3)C2=O)cc1`, for which the “diameter of the inhibition zone (DIZ)” value is 22 mm.
Same read-out and setting: the result for `O=C1S/C(=C\c2ccc(S(=O)(=O)Nc3nc(-c4ccccc4)cs3)cc2)C(=O)N1C(=O)c1cccc(Cl)c1` reads 26 mm.

Another experiment concerns Bacillus subtilis. Nature of the experiment: Antibacterial activity against Bacillus subtilis MTCC 619 assessed as growth inhibition after 24 hr by Kirby-Bauer disk diffusion method. The format is functional. To be noted: MTCC 619, 24 h.
For the molecule `Cc1cccc(C(=O)N2C(=O)S/C(=C\c3ccc(S(=O)(=O)Nc4nc(-c5ccccc5)cs4)cc3)C2=O)c1`, the MIC – broadly, the lowest concentration found to suppress growth – amounted to 100 µg/mL (≈ 178 µM).
Take `O=C1S/C(=C\c2ccc(S(=O)(=O)Nc3nc(-c4ccccc4)cs3)cc2)C(=O)N1C(=O)c1ccc(Cl)cc1`: the MIC came to 6.25 µg/mL (≈ 10.7 µM).
`O=C1S/C(=C\c2ccc(S(=O)(=O)Nc3nc(-c4ccccc4)cs3)cc2)C(=O)N1C(=O)c1ccccc1Cl`: the MIC amounted to 6.25 µg/mL (≈ 10.7 µM).
Consider `Cc1ccc(C(=O)N2C(=O)S/C(=C\c3ccc(S(=O)(=O)Nc4nc(-c5ccccc5)cs4)cc3)C2=O)cc1`, for which the MIC worked out at 50 µg/mL (≈ 89 µM).
`O=C1S/C(=C\c2ccc(S(=O)(=O)Nc3nc(-c4ccccc4)cs3)cc2)C(=O)N1C(=O)c1cccc(Cl)c1`: the MIC was 12.5 µg/mL (≈ 21.5 µM).

For a further experiment, the system named is Bacillus subtilis. The experiment can be described thus: Antibacterial activity against Bacillus subtilis MTCC 619 assessed as diameter of growth inhibition zone after 24 hr by Kirby-Bauer disk diffusion method. The format is functional.
Conditions: not given
Take `Cc1cccc(C(=O)N2C(=O)S/C(=C\c3ccc(S(=O)(=O)Nc4nc(-c5ccccc5)cs4)cc3)C2=O)c1`: the “diameter of the inhibition zone (DIZ)” value stood at 18 mm.
In the case of `O=C1S/C(=C\c2ccc(S(=O)(=O)Nc3nc(-c4ccccc4)cs3)cc2)C(=O)N1C(=O)c1ccc(Cl)cc1`, the “diameter of the inhibition zone (DIZ)” value was 26 mm.
`O=C1S/C(=C\c2ccc(S(=O)(=O)Nc3nc(-c4ccccc4)cs3)cc2)C(=O)N1C(=O)c1ccccc1Cl`: the “diameter of the inhibition zone (DIZ)” value is 26 mm.
Take `Cc1ccc(C(=O)N2C(=O)S/C(=C\c3ccc(S(=O)(=O)Nc4nc(-c5ccccc5)cs4)cc3)C2=O)cc1`: the “diameter of the inhibition zone (DIZ)” value was 23 mm.
Take `O=C1S/C(=C\c2ccc(S(=O)(=O)Nc3nc(-c4ccccc4)cs3)cc2)C(=O)N1C(=O)c1cccc(Cl)c1`: the “diameter of the inhibition zone (DIZ)” value worked out at 25 mm.

For the next experiment, the system named is Pseudomonas aeruginosa. The experiment can be described thus: Antibacterial activity against Pseudomonas aeruginosa MTCC 741 assessed as growth inhibition after 24 hr by Kirby-Bauer disk diffusion method. The format is functional. Conditions: MTCC 741, 24 h.
Take `Cc1cccc(C(=O)N2C(=O)S/C(=C\c3ccc(S(=O)(=O)Nc4nc(-c5ccccc5)cs4)cc3)C2=O)c1`: the MIC was found to be 100 µg/mL (≈ 178 µM).
On to `O=C1S/C(=C\c2ccc(S(=O)(=O)Nc3nc(-c4ccccc4)cs3)cc2)C(=O)N1C(=O)c1ccc(Cl)cc1`, for which the MIC came to 12.5 µg/mL (≈ 21.5 µM).
For the molecule `O=C1S/C(=C\c2ccc(S(=O)(=O)Nc3nc(-c4ccccc4)cs3)cc2)C(=O)N1C(=O)c1ccccc1Cl`, the MIC stood at 12.5 µg/mL (≈ 21.5 µM).
In the case of `Cc1ccc(C(=O)N2C(=O)S/C(=C\c3ccc(S(=O)(=O)Nc4nc(-c5ccccc5)cs4)cc3)C2=O)cc1`, the MIC turned out to be 50 µg/mL (≈ 89 µM).
For `O=C1S/C(=C\c2ccc(S(=O)(=O)Nc3nc(-c4ccccc4)cs3)cc2)C(=O)N1C(=O)c1cccc(Cl)c1`, the MIC was 25 µg/mL (≈ 42.9 µM).

Another experiment has as its system Escherichia coli. Nature of the experiment: Antibacterial activity against Escherichia coli MTCC 739 assessed as growth inhibition after 24 hr by Kirby-Bauer disk diffusion method. Format: functional. Conditions: MTCC 739, 24 h.
With `Cc1cccc(C(=O)N2C(=O)S/C(=C\c3ccc(S(=O)(=O)Nc4nc(-c5ccccc5)cs4)cc3)C2=O)c1`, the MIC turned out to be 100 µg/mL (≈ 178 µM).
With `O=C1S/C(=C\c2ccc(S(=O)(=O)Nc3nc(-c4ccccc4)cs3)cc2)C(=O)N1C(=O)c1ccc(Cl)cc1`, the MIC amounted to 25 µg/mL (≈ 42.9 µM).
The same measure, in the same setting: the result for `O=C1S/C(=C\c2ccc(S(=O)(=O)Nc3nc(-c4ccccc4)cs3)cc2)C(=O)N1C(=O)c1ccccc1Cl` reads 12.5 µg/mL (≈ 21.5 µM); that for `Cc1ccc(C(=O)N2C(=O)S/C(=C\c3ccc(S(=O)(=O)Nc4nc(-c5ccccc5)cs4)cc3)C2=O)cc1`, 50 µg/mL (≈ 89 µM); that for `O=C1S/C(=C\c2ccc(S(=O)(=O)Nc3nc(-c4ccccc4)cs3)cc2)C(=O)N1C(=O)c1cccc(Cl)c1`, 25 µg/mL (≈ 42.9 µM).

The test system of the next experiment is Staphylococcus aureus. Nature of the experiment: Antibacterial activity against Staphylococcus aureus MTCC 96 assessed as growth inhibition after 24 hr by Kirby-Bauer disk diffusion method. Format: functional. To be noted: MTCC 96, 24 h.
Regarding `Cc1cccc(C(=O)N2C(=O)S/C(=C\c3ccc(S(=O)(=O)Nc4nc(-c5ccccc5)cs4)cc3)C2=O)c1`, the MIC came out at 100 µg/mL (≈ 178 µM).
For the molecule `O=C1S/C(=C\c2ccc(S(=O)(=O)Nc3nc(-c4ccccc4)cs3)cc2)C(=O)N1C(=O)c1ccc(Cl)cc1`, the minimal inhibitory concentration (MIC) was 6.25 µg/mL (≈ 10.7 µM).
Regarding `O=C1S/C(=C\c2ccc(S(=O)(=O)Nc3nc(-c4ccccc4)cs3)cc2)C(=O)N1C(=O)c1ccccc1Cl`, the MIC came to 6.25 µg/mL (≈ 10.7 µM).
Consider `Cc1ccc(C(=O)N2C(=O)S/C(=C\c3ccc(S(=O)(=O)Nc4nc(-c5ccccc5)cs4)cc3)C2=O)cc1`, for which the MIC was 50 µg/mL (≈ 89 µM).
Regarding `O=C1S/C(=C\c2ccc(S(=O)(=O)Nc3nc(-c4ccccc4)cs3)cc2)C(=O)N1C(=O)c1cccc(Cl)c1`, the MIC is 12.5 µg/mL (≈ 21.5 µM).
